# Patent publication US8815875B2 (Merck Sharp & Dohme Corp., priority 2008, dated 2014)
# Molecular target: FABP4 (Homo sapiens, UniProt P15090)
# Test: TdF (Temperature Dependence Fluorescence) assay, thermal shift, FABP4
# Assay type: binding
# Procedure, shortened: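 Binding measured as ΔTm versus protein alone; binding constants derived by nonlinear fitting with ΔHL set to −7 kcal/mol and ΔCpL to zero.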
# Chain of FABP4 (P15090 whole entry, species assumed): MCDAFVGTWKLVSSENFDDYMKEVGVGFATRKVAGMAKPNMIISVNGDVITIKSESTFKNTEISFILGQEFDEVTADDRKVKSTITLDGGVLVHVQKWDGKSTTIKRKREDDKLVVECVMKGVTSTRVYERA
Compound,Kd,FABP4 TdF Kd
O=c1cc(CN2CCC(Cc3cccc(F)c3)C2)[nH]c2nc(-c3ccccc3)nn12 (centres unmarked) [1-89],> 500 nM,–
O=c1cc(COc2cccc3c2CCC3)[nH]c2nc(-c3ccccc3)nn12 [1-6],–,B (0.5 ≦ B < 0.001 μM)
CC1(C)CCCC(C)(C)C1OCc1cc(=O)n2nc(-c3ccccc3)nc2[nH]1 [1-102],> 500 nM,–
O=c1cc(COc2ccccc2Cl)[nH]c2nc(-c3ccccc3)nn12 [1-118],–,B (0.5 ≦ B < 0.001 μM)
CN(C)c1cccc(OCc2cc(=O)n3nc(-c4ccccc4)nc3[nH]2)c1 [1-28],> 500 nM,–
O=c1cc(Cn2ccc3c(Cl)cccc32)[nH]c2nc(-c3ccccc3)nn12 [1-11],–,B (0.5 ≦ B < 0.001 μM)
O=c1cc(CN2CCC(c3cccc(Cl)c3)C2)[nH]c2nc(-c3ccccc3)nn12 (centres unmarked) [1-91],> 500 nM,–
COc1ccc2c(c1)CN(Cc1cc(=O)n3nc(-c4ccccc4)nc3[nH]1)C2=O [1-29],> 500 nM,–
CC1(C)CCC(=O)N(Cc2cc(=O)n3nc(-c4ccccc4)nc3[nH]2)C1 [1-95],> 500 nM,–
O=c1cc(COc2cc(Cl)cc(Cl)c2Cl)[nH]c2nc(-c3ccccc3)nn12 [1-87],–,B (0.5 ≦ B < 0.001 μM)
O=c1cc(CN2CCc3ccc(Cl)cc32)[nH]c2nc(-c3ccccc3)nn12 [1-83],–,B (0.5 ≦ B < 0.001 μM)
Cn1nc(C(F)(F)F)cc1OCc1cc(=O)n2nc(-c3ccccc3)nc2[nH]1 [1-22],> 500 nM,–
O=c1cc(CN2CCn3c(Br)nnc3C2)[nH]c2nc(-c3ccccc3)nn12 [1-109],> 500 nM,–
O=c1cc(CN2CCCC2Cc2cccnc2)[nH]c2nc(-c3ccccc3)nn12 (centres unmarked) [1-112],> 500 nM,–
O=c1cc(CN2CCCC2Cc2ccc(F)cc2)[nH]c2nc(-c3ccccc3)nn12 (centres unmarked) [1-56],> 500 nM,–
O=c1cc(COc2cccc(Cl)c2Cl)[nH]c2nc(-c3ccccc3)nn12 [1-67],–,B (0.5 ≦ B < 0.001 μM)
CNc1cccc(N(C)Cc2cc(=O)n3nc(-c4ccccc4)nc3[nH]2)c1C1CC1 [19-2],–,B (0.5 ≦ B < 0.001 μM)
O=c1cc(COc2ccc(Br)c(Cl)c2)[nH]c2nc(-c3ccccc3)nn12 [1-8],> 500 nM,–
CN(Cc1cc(=O)n2nc(-c3ccccc3)nc2[nH]1)c1cccc(Br)c1 [1-16],–,B (0.5 ≦ B < 0.001 μM)

Compound,Kd,FABP4 TdF Kd
Cc1c(Cl)cccc1NCc1cc(=O)n2nc(-c3ccccc3)cc2[nH]1 [10-2],> 500 nM,–
O=c1cc(CN2CCOc3ccccc32)[nH]c2nc(-c3ccccc3)nn12 [1-36],> 500 nM,–
O=c1cc(COc2c(Cl)ccc(Cl)c2Cl)[nH]c2nc(-c3ccccc3)nn12 [1-31],–,B (0.5 ≦ B < 0.001 μM)
Cc1cnc2cccc(NCc3cc(=O)n4nc(-c5ccccc5)nc4[nH]3)n12 [1-104],> 500 nM,–
O=c1cc(CN2CCOc3c(Br)cccc32)[nH]c2nc(-c3ccccc3)nn12 [1-81],–,B (0.5 ≦ B < 0.001 μM)
O=c1cc(CN2CCCC2Cc2ccncn2)[nH]c2nc(-c3ccccc3)nn12 (centres unmarked) [1-103],> 500 nM,–
CCc1c(Cl)cccc1OCc1cc(=O)n2nc(-c3ccccc3)nc2[nH]1 [21-3],–,B (0.5 ≦ B < 0.001 μM)
CN(C(=O)c1ccccc1OCc1[nH]c2nc(-c3ccccc3)nn2c(=O)c1Cl)C1CCCCC1 [24-12],–,B (0.5 ≦ B < 0.001 μM)
Cc1c(Br)cccc1OCc1cc(=O)n2nc(-c3ccccc3)nc2[nH]1 [1-84],–,B (0.5 ≦ B < 0.001 μM)
O=c1cc(COC2CCCCC2O)[nH]c2nc(-c3ccccc3)nn12 (centres unmarked) [1-135],> 500 nM,–
Cc1cn(Cc2cc(=O)n3nc(-c4ccccc4)nc3[nH]2)c2cccc(Cl)c12 [1-142],–,B (0.5 ≦ B < 0.001 μM)
O=c1cc(CN2CCc3ccccc32)[nH]c2nc(-c3ccccc3)nn12 [1-43],> 500 nM,–
O=c1cc(COC2CCNCC2)[nH]c2nc(-c3ccccc3)nn12 [1-42],> 500 nM,–
Cc1ccc(F)c2ccn(Cc3cc(=O)n4nc(-c5ccccc5)nc4[nH]3)c12 [1-141],> 500 nM,–
O=C(NCC1CC1)c1ccccc1OCc1[nH]c2nc(-c3ccccc3)nn2c(=O)c1Cl [24-15],–,B (0.5 ≦ B < 0.001 μM)
COc1c(Cl)cccc1OCc1cc(=O)n2nc(-c3ccccc3)nc2[nH]1 [1-55],–,B (0.5 ≦ B < 0.001 μM)
O=c1cc(COc2ccccc2)[nH]c2nc(-c3ccccc3)nn12 [1-46],> 500 nM,–
CCc1ccc(OCc2cc(=O)n3nc(C)nc3[nH]2)cc1 [8-3],> 500 nM,–
CCc1ccc(S(=O)(=O)Cc2cc(=O)n3nc(-c4ccccc4)nc3[nH]2)cc1 [12-2],> 500 nM,–

# Now from value to molecule:
Kd,FABP4 TdF Kd,Compound
–,B (0.5 ≦ B < 0.001 μM),O=C(NCC1(O)CCCCC1)C1(OCc2cc(=O)n3nc(-c4ccccc4)nc3[nH]2)CCCCC1 [48-56]
> 500 nM,–,"COC[C@@H]1CCCN1C(=O)C1(OCc2cc(=O)n3nc(-c4ccccc4)nc3[nH]2)CCCCC1 [48-5, (S)-5-((1-(2-(methoxymethyl)pyrrolidine-1-carbonyl)cyclohexyloxy)methyl)-2-phenyl-[1,2,4]triazolo[1,5-a]pyrimidin-7(4H)-one]"
–,B (0.5 ≦ B < 0.001 μM),O=C(NCc1ccccc1C(F)(F)F)C1(OCc2cc(=O)n3nc(-c4ccccc4)nc3[nH]2)CCCCC1 [48-49]
–,B (0.5 ≦ B < 0.001 μM),Cn1ccc(NC(=O)c2c(Cl)cccc2OCc2cc(=O)n3nc(-c4ccccc4)nc3[nH]2)n1 [47-40]
–,B (0.5 ≦ B < 0.001 μM),COC[C@H]1CCCN1C(=O)c1c(Cl)cccc1OCc1cc(=O)n2nc(-c3ccccc3)nc2[nH]1 [47-10]
–,B (0.5 ≦ B < 0.001 μM),Cc1c(Cl)cccc1OCc1[nH]c2nc(-c3ccccc3)nn2c(=O)c1F [36-1]
–,B (0.5 ≦ B < 0.001 μM),"Cc1cc(NC(=O)c2c(Cl)cccc2OCc2cc(=O)n3nc(-c4ccccc4)nc3[nH]2)n(C)n1 [47-7, 2-chloro-N-(1,3-dimethyl-1H-pyrazol-5-yl)-6-((7-oxo-2-phenyl-4,7-dihydro-[1,2,4]triazolo[1,5-a]pyrimidin-5-yl)methoxy)benzamide]"
> 500 nM,–,Cc1c(Cl)cccc1OCc1cc(=O)n2nc(-c3cncnc3)nc2[nH]1 [25-6]
–,B (0.5 ≦ B < 0.001 μM),Cc1c(Cl)cccc1OC(C)c1cc(=O)n2nc(-c3ccccc3)nc2[nH]1 (centres unmarked) [37-5]
–,B (0.5 ≦ B < 0.001 μM),"O=C(NC1(CO)CC1)c1c(Cl)cccc1OCc1cc(=O)n2nc(-c3ccccc3)nc2[nH]1 [47-12, 2-chloro-N-(1-(hydroxymethyl)cyclopropyl)-6-((7-oxo-2-phenyl-4,7-dihydro-[1,2,4]triazolo[1,5-a]pyrimidin-5-yl)methoxy)benzamide]"
–,B (0.5 ≦ B < 0.001 μM),O=C(Nc1c(Cl)cccc1OCc1cc(=O)n2nc(-c3ccccc3)nc2[nH]1)C1CCC1 [49-2]
–,B (0.5 ≦ B < 0.001 μM),CN(CCc1ccccc1)C(=O)C1(OCc2cc(=O)n3nc(-c4ccccc4)nc3[nH]2)CCCCC1 [48-37]
–,B (0.5 ≦ B < 0.001 μM),Nc1cc(C2CC2)n(C(=O)c2c(Cl)cccc2OCc2cc(=O)n3nc(-c4ccccc4)nc3[nH]2)n1 [47-49]
–,B (0.5 ≦ B < 0.001 μM),O=C(NC1(c2ccccc2F)CC1)C1(OCc2cc(=O)n3nc(-c4ccccc4)nc3[nH]2)CCCCC1 [48-48]
–,B (0.5 ≦ B < 0.001 μM),"COCC1(CNC(=O)c2c(Cl)cccc2OCc2cc(=O)n3nc(-c4ccccc4)nc3[nH]2)CC1 [47-19, 2-chloro-N-((1-(methoxymethyl)cyclopropyl)methyl)-6-((7-oxo-2-phenyl-4,7-dihydro-[1,2,4]triazolo[1,5-a]pyrimidin-5-yl)methoxy)benzamide]"
–,B (0.5 ≦ B < 0.001 μM),O=C(NCc1ccccc1)C1(OCc2cc(=O)n3nc(-c4ccccc4)nc3[nH]2)CCCCC1 [48-52]
–,B (0.5 ≦ B < 0.001 μM),C#CC1(NC(=O)C2(OCc3cc(=O)n4nc(-c5ccccc5)nc4[nH]3)CCCCC2)CCCCC1 [48-41]
> 500 nM,–,O=c1nc(SCc2cccc(Cl)c2Cl)[nH]c2nc(-c3ccccc3)nn12 [51-4]
–,B (0.5 ≦ B < 0.001 μM),O=C(NCC1CC1)C1(OCc2cc(=O)n3nc(-c4ccccc4)nc3[nH]2)CCCCC1 [48-16]
–,B (0.5 ≦ B < 0.001 μM),Cn1ccc(NC(=O)C2(OCc3cc(=O)n4nc(-c5ccccc5)nc4[nH]3)CCCCC2)n1 [48-33]
≤ 1 nM,–,"CC(C)(C)c1cc(NC(=O)c2c(Cl)cccc2OCc2cc(=O)n3nc(-c4ccccc4)nc3[nH]2)n(-c2ccc(Cl)cc2)n1 [47-27, N-(3-tert-butyl-1-(4-chlorophenyl)-1H-pyrazol-5-yl)-2-chloro-6-((7-oxo-2-phenyl-4,7-dihydro-[1,2,4]triazolo[1,5-a]pyrimidin-5-yl)methoxy)benzamide]"
≤ 1 nM,–,O=C(NCC1(CO)CCCC1)C1(OCc2[nH]c3nc(-c4ccccc4)nn3c(=O)c2Cl)CCCCC1 [50-5]
≤ 1 nM,–,O=C(NCC1(c2ccc(Cl)cc2)CCC1)C1(OCc2cc(=O)n3nc(-c4ccccc4)nc3[nH]2)CCCCC1 [48-65]
–,B (0.5 ≦ B < 0.001 μM),O=c1cc(COc2cccc(Cl)c2CC2CC2)[nH]c2nc(-c3ccccc3)nn12 [43-2]
> 500 nM,–,Cc1c(Cl)cccc1OCc1cc(=O)n2nc(-c3cnccn3)nc2[nH]1 [25-5]
–,B (0.5 ≦ B < 0.001 μM),CCCCC1(C)CN(Cc2cc(=O)n3nc(-c4ccccc4)nc3[nH]2)c2cccc(Cl)c21 (centres unmarked) [41-3]
–,B (0.5 ≦ B < 0.001 μM),"O=C(NC1(CO)CCCC1)c1c(Cl)cccc1OCc1cc(=O)n2nc(-c3ccccc3)nc2[nH]1 [47-17, 2-chloro-N-(1-(hydroxymethyl)cyclopentyl)-6-((7-oxo-2-phenyl-4,7-dihydro-[1,2,4]triazolo[1,5-a]pyrimidin-5-yl)methoxy)benzamide]"
–,B (0.5 ≦ B < 0.001 μM),CC1(NC(=O)c2c(Cl)cccc2OCc2cc(=O)n3nc(-c4ccccc4)nc3[nH]2)COC1 [47-47]
–,B (0.5 ≦ B < 0.001 μM),Cn1nc(C2CC2)cc1NC(=O)c1c(Cl)cccc1OCc1cc(=O)n2nc(-c3ccccc3)nc2[nH]1 [47-11]
–,B (0.5 ≦ B < 0.001 μM),"O=C(NCC1(CO)CCOCC1)c1c(Cl)cccc1OCc1cc(=O)n2nc(-c3ccccc3)nc2[nH]1 [47-26, 2-chloro-N-((4-(hydroxymethyl)tetrahydro-2H-pyran-4-yl)methyl)-6-((7-oxo-2-phenyl-4,7-dihydro-[1,2,4]triazolo[1,5-a]pyrimidin-5-yl)methoxy)benzamide]"
